Values quoted from earlier work as cited in patent publication US11534622B2, “Non-invasive systems and methods for selective activation of photoreactive responses” (IMMUNOLIGHT, LLC, priority 2014, dated 2022).
Blank lines part the entries; values can stand above or below the compound they belong to.

What was measured:
[1] = orange juice, high UV exposure of 100 mJ/cm^2
tumors = conditions: in vivo
[2] = clinical use

degradation of Vitamin C [1]: 17%
Compound: O=C1O[C@H]([C@@H](O)CO)C(O)=C1O [Vitamin C]

Compound: CC(=O)[O-].CC(=O)[O-].CCc1c(CC)c2cc3nc(cnc4cc(OCCOCCOCCOC)c(OCCOCCOCCOC)cc4ncc4nc(cc1[n-]2)C(CCCO)=C4C)C(C)=C3CCCO.O.[Lu+3] [Lutetium texaphryin, Motexafin lutetium]
selectivity for tumors compared to normal tissues (tumors): one of the greatest reported selectivities for tumors

duration of skin photosensitivity [2]: approximately 2 weeks
Compound: Oc1cccc(-c2c3nc(c(-c4cccc(O)c4)c4ccc([nH]4)c(-c4cccc(O)c4)c4nc(c(-c5cccc(O)c5)c5ccc2[nH]5)CC4)C=C3)c1 [Foscan, Tetra (m-hydroxyphenyl) chlorin]
